Experimental data taken from patent US8957108B2, “Use of 5,6-dimethylxanthenone-4-acetic acid as an antiviral agent” (University of Maryland, Baltimore, priority 2006, dated 2015).
Values after ≈ are worked out from the molar mass of the structure shown.

Columns and labels:
[1] = tested on: Francisella tularensis LVS; format: cell-based; conditions: Ft LVS-infected macrophages
peritoneal macrophages = assay: Cytokine analysis of macrophage culture supernatants; format: cell-based, mouse; conditions: supernatants at 24 h
Influenza/A/Wuhan = assay: Assay of direct inhibition of viral infection (influenza, MDCK cells, CPE); format: cell-based; conditions: CPE of influenza virus on MDCK cells; read-out: IC50 direct antiviral activity
Method: Influenza at 10^3 TCID50 was added in 50 μl volumes to all wells and incubated at room temperature for 1 h. The mixture was inoculated onto MDCK cells on 96-well plates. Tamiflu (1.75 mg/ml) and Relenza (0.5 mg/ml) were used as a positive control for the assay.

Structure (SMILES): Cc1ccc2c(=O)c3cccc(CC(=O)O)c3oc2c1C [DMXAA, 5,6-dimethylxanthenone-4-acetic acid]
- time to reduce a bacterial burden compared with rIFN-β [1]: took longer
- reduction of bacterial burden ([1]; 100 μg/ml, within 24 hr): 10 fold
- RANTES production in IRF-3−/− macrophages (peritoneal macrophages): fail to produce RANTES
- secretion of TNF-α in IRF-3-deficient macrophages (peritoneal macrophages): reduced to background levels
- IC50 (Influenza/A/Wuhan): 5 µg/mL (≈ 17.7 µM)
